Data on two molecules can be found in patent publication US20230321123A1, “INHIBITORS OF PSEUDOMONAS AERUGINOSA VIRULENCE FACTOR LasB” (Helmholtz-Zentrum Für Infektionsforschung GmbH, priority 2020, published 2023).

A short description of one data set: Cytotoxicity A549. It counts as cell-based. As to conditions: human; A549. On the procedure: (§1) The compounds of examples 1 and 5 were not toxic against the cell lines HepG2, HEK293 and A549 (Table 5). Additionally, the inhibitory effect against P. aeruginosa PA14 was evaluated to exclude an antibacterial effect of the compounds of the present invention. This is important as it was the aim to target virulence and not viability of the bacteria. […]

Another data set in a line: Cytotoxicity HepG2. It counts as cell-based. The conditions noted are these: human; HepG2. On the procedure: as §1
Another data set has as its target ADAM17 (TACE) (Homo sapiens, UniProt P78536). As to the kind of experiment: Selectivity against human off-targets: ADAM17 (TACE). The format is biochemical.
For a further data set, the target named is T1, MMP-1 (Homo sapiens, UniProt P03956).
T1 sequence (P03956 100-469): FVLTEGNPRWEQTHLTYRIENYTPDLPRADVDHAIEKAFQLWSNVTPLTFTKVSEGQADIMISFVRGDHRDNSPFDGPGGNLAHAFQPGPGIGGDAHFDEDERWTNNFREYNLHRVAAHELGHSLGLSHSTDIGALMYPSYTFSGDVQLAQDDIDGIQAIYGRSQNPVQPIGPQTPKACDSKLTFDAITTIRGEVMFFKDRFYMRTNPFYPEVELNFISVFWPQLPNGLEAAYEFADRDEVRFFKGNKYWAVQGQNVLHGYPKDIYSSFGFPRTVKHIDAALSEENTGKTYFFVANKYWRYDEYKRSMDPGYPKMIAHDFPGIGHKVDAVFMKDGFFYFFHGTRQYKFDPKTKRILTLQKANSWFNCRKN
As to the kind of experiment: Selectivity against human off-targets: MMP-1. The format is biochemical. As to conditions: read-out: Inhibition [%] MMP-1. An excerpt:
(§2) The inhibition of zinc-containing human enzymes is described frequently for LasB inhibitors and poses a serious difficulty in the development of selective compounds. Particularly, the inhibition of matrix metalloproteases (MMPs) should be avoided. To further investigate this issue, three derivatives (the compounds of examples 1, 5 and 8) have been tested for their selectivity against several human off-targets, including six MMPs, ADAM17 (TACE), HDAC-3 and HDAC-8 (Table 4). The selectivity of the compounds is particularly high for MMPs and HDACs, whereas the inhibition of ADAM17 was considerably stronger.

A further data set has as its system P. aeruginosa PA14. As to the kind of experiment: PA14 inhibition (MIC, antibacterial effect). It counts as cell-based. Here is the method:
as §1

Another data set concerns the target COX-1 (Homo sapiens, UniProt P23219). As to the kind of experiment: Selectivity against off-targets: COX-1. It counts as biochemical.
A short description of the next data set: Cytotoxicity HEK293. The format is cell-based. As to conditions: human; HEK293. Here is the method:
as §1

The target of the next data set is T2, MMP-2 (Homo sapiens, UniProt P08253).
T2 sequence (P08253 110-660): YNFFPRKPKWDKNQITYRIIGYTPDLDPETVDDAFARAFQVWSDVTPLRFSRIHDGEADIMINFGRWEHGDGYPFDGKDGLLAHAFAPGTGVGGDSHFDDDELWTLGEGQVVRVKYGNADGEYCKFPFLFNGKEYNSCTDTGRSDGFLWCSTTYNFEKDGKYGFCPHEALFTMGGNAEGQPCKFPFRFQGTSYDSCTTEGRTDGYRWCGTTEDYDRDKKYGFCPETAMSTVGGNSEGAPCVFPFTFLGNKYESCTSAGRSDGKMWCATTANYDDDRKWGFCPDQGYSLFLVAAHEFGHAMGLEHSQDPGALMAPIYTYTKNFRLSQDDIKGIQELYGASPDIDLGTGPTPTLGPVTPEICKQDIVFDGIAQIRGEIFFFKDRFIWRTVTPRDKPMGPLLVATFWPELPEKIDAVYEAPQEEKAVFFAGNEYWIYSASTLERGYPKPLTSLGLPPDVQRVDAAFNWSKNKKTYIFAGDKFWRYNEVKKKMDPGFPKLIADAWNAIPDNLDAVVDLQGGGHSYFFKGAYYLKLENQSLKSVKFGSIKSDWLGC
As to the kind of experiment: Selectivity against human off-targets: MMP-2. As to conditions: read-out: Inhibition [%] MMP-2. It counts as biochemical.
Description: as §2

A further data set addresses MMP-3 (Homo sapiens, UniProt P08254). As to the kind of experiment: Selectivity against human off-targets: MMP-3. It counts as biochemical. The conditions noted are these: read-out: Inhibition [%] MMP-3.
Description: as §2

The target of another data set is LasB (Pseudomonas aeruginosa, UniProt Q02RJ6). As to the kind of experiment: biochemical. More on the design: species or system P. aeruginosa.
For a further data set, the target named is MMP-14 (Homo sapiens, UniProt P50281). As to the kind of experiment: Selectivity against human off-targets: MMP-14. It counts as biochemical. The conditions noted are these: read-out: Inhibition [%] MMP-14.
Description: as §2

The target in a further data set is HDAC-3 (Homo sapiens, UniProt O15379). As to the kind of experiment: Selectivity against human off-targets: HDAC-3. The format is biochemical. The conditions noted are these: read-out: IC50 HDAC-3.
Description: as §2

In another data set the target is T3, MMP-7 (Homo sapiens, UniProt P09237).
T3 sequence (P09237 95-267): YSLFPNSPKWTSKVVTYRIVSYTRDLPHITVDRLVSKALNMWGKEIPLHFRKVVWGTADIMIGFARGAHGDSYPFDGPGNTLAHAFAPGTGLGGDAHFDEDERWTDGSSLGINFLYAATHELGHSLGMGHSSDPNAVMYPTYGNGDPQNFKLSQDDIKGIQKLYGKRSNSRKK
As to the kind of experiment: Selectivity against human off-targets: MMP-7. The format is biochemical. As to conditions: read-out: Inhibition [%] MMP-7.
Description: as §2

In a further data set the target is MMP-8 (Homo sapiens, UniProt P22894). As to the kind of experiment: Selectivity against human off-targets: MMP-8. The format is biochemical. The conditions noted are these: read-out: Inhibition [%] MMP-8.
Description: as §2

The next data set has as its target T4, HDAC-8 (Homo sapiens, UniProt Q9BY41).
T4 sequence (Q9BY41 1-377): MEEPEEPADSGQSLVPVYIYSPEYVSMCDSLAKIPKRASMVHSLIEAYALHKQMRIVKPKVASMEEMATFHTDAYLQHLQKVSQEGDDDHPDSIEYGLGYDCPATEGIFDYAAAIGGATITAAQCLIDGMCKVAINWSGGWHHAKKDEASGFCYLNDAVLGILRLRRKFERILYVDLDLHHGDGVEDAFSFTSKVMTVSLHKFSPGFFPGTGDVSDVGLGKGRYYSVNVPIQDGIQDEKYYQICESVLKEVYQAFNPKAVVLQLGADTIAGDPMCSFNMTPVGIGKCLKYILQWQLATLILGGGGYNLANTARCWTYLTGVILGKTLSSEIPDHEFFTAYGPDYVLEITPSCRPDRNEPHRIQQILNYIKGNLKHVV
As to the kind of experiment: Selectivity against human off-targets: HDAC-8. It counts as biochemical. As to conditions: read-out: IC50 HDAC-8.
Description: as §2

Read-outs that look alike come from different tables or passages of the source.

The IC50 is the concentration needed to halve the response being measured. As a reminder, the inhibition is the share of the control response that was lost under treatment. A word on the MIC: it is the lowest concentration that inhibits growth of the organism.

MMP-3, sequence (P08254 100-477): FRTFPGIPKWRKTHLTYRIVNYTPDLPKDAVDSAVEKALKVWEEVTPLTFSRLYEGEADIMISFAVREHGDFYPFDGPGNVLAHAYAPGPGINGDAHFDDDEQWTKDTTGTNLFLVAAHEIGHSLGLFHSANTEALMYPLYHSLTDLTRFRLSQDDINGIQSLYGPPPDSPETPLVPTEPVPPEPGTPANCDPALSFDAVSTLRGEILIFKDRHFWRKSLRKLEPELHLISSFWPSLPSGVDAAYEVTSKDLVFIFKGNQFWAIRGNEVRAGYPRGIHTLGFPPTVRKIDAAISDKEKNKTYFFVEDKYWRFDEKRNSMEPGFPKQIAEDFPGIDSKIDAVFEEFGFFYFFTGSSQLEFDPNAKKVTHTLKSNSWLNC
ADAM17 (TACE), sequence (P78536 215-824): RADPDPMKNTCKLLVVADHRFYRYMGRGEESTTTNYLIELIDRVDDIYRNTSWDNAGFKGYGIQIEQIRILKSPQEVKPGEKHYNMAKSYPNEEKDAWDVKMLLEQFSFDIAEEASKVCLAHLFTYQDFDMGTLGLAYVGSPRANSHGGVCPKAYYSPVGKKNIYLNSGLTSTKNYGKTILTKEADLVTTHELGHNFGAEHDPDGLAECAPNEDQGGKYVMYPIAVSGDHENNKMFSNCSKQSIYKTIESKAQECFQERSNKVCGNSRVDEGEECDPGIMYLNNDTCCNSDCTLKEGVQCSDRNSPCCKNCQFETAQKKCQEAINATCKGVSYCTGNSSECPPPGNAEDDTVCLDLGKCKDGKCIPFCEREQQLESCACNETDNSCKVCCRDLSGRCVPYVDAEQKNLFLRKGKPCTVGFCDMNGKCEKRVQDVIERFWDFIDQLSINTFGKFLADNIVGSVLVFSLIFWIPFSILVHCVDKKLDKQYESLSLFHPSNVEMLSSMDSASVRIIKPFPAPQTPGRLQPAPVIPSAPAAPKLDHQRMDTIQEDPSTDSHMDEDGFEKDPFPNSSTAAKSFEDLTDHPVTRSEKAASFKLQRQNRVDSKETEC
LasB, sequence (Q02RJ6 198-498): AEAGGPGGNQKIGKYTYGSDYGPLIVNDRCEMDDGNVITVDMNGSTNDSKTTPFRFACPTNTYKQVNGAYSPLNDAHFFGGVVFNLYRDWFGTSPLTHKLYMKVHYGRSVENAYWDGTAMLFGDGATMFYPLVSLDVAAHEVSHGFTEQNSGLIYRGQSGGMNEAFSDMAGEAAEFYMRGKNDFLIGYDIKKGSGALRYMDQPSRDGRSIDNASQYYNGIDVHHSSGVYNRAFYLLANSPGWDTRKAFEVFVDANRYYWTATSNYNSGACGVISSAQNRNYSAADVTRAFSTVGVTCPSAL
COX-1, sequence (P23219 24-599): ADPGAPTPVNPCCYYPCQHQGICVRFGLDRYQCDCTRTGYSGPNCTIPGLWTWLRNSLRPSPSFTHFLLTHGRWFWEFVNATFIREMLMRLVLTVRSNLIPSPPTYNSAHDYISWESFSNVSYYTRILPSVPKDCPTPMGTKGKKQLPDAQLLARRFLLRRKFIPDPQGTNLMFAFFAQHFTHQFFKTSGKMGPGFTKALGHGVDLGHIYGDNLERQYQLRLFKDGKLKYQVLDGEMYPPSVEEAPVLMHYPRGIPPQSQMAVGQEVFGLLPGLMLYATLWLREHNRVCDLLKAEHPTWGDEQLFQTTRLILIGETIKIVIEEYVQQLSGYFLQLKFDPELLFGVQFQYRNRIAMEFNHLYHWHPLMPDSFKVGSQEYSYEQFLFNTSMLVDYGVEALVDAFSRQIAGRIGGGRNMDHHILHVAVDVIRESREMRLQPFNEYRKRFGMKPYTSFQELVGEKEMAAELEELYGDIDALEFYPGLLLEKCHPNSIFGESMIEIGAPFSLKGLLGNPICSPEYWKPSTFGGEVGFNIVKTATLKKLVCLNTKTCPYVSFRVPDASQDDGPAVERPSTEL
MMP-8, sequence (P22894 101-467): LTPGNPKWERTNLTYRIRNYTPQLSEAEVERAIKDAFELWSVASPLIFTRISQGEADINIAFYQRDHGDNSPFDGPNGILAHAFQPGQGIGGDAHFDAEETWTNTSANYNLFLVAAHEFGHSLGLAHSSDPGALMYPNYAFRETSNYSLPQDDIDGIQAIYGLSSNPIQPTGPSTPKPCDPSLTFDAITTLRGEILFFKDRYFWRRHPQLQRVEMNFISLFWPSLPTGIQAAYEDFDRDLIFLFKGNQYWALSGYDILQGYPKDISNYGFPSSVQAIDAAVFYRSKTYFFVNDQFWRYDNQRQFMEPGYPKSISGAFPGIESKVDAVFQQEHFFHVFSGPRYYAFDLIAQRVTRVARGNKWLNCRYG
HDAC-3, sequence (O15379 whole entry): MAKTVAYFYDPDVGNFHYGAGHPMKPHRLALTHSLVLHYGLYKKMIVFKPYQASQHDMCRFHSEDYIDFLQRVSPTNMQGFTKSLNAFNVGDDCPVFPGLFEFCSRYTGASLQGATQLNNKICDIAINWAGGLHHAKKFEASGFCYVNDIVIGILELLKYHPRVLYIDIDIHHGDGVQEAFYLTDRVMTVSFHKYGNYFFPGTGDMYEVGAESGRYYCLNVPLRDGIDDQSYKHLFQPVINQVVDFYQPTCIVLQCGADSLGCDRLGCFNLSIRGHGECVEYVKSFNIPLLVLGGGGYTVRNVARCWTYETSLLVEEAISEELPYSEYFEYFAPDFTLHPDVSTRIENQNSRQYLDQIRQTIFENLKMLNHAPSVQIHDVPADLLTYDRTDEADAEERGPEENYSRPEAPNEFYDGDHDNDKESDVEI
HDAC-3, sequence (Q9Y618 395-489 partner limits assumed): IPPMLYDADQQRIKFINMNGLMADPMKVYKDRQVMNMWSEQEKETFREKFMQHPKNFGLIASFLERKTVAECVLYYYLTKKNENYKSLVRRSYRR

`CC(C)CC(C(=O)N[C@H](c1cn(-c2ccc(Cl)c(Cl)c2)nn1)C(C)C)P(=O)(O)O` (mixture of isomers) [Example 170, (1-(((S)-1-(1-(3,4-dichlorophenyl)-1H-1,2,3-triazol-4-yl)-2-methylpropyl)amino)-4-methyl-1-oxopentan-2-yl)phosphonic acid]: the IC50 in “Cytotoxicity A549” is over 100 µM; in the data set “Cytotoxicity HepG2” it was over 100 µM; in “Cytotoxicity HEK293”, over 100 µM; against LasB (IC50 against LasB (Table 16), heteropentacycles and benzannulated heteropentacycles) it was 60 ± 3 µM. Further, the inhibition at 100 µM was under 10% against ADAM17 (TACE) (at 100 μM); 11% at MMP-1 (at 100 μM); under 10% on COX-1; under 10% on MMP-2 (at 100 μM); under 10% on MMP-3 (at 100 μM). The MIC with P. aeruginosa PA14 (Pseudomonas aeruginosa, PA14; read-out: MIC PA14) is over 100 µM.
For the molecule `O=C(Nc1ccccc1)C(S)Cc1ccccc1` (racemic) [Example 1, 2-Mercapto-N,3-diphenylpropanamide], the IC50 in “Cytotoxicity A549” is over 100 µM; in “Cytotoxicity HepG2” it was over 100 µM; at ADAM17 (TACE) (read-out: IC50 ADAM17 (TACE)) it was 2.2 ± 0.1 µM; at HDAC-3, over 100 µM; in “Cytotoxicity HEK293”, over 100 µM; on HDAC-8, over 100 µM. The same molecule returned a concentration for half-maximal inhibition (IC50) on LasB (IC50 against LasB) of 1.2 ± 0.1 µM. Besides, the inhibition at 100 µM was under 10% on MMP-14; under 10% at MMP-1; under 10% at MMP-2; under 10% on MMP-3; under 10% on MMP-7; 34 ± 11% at MMP-8. Moreover, the minimal inhibitory concentration (MIC) in the data set with P. aeruginosa PA14 (Pseudomonas aeruginosa, PA14, read-out: MIC PA14) was over 100 µM.
